# Results: patent EP0001516A1, “Beta-Lactam compounds, processes for their preparation, pharmaceutical compositions containing them and intermediates of use in their preparation” (GLAXO GROUP LIMITED, priority 1977, dated 1979)
# How the values were obtained:
# E. coli (TEM^+) 1193E = experiment: Synergy testing with amoxycillin (MIC, agar dilution); format: cell-based
# From the text: (§1) Serial two-fold dilutions of freshly prepared test solution were made into Oxoid No. 1 Nutrient agar with or without added enrichment and poured into petri dishes. Plates were innoculated with a multipoint innoculator with innoculum containing approximately 10^5 colony forming units of the organisms shown in Table 1, all of which are clinical isolates.
# (§2) Method as for 1, incorporating amoxycillin in serial two-fold dilutions along with a sub-inhibitory, fixed concentration of the test clavulanic acid derivative, as shown in the Table. All of the organisms are clinical isolates.
# Pr. rettgeri 1356E = experiment: as above; format: cell-based
# From the text: as §1, §2
# K. aerogenes 1963E = experiment: as above; format: cell-based
# From the text: as §1, §2
# E. coli 851E = experiment: Minimum Inhibitory Concentration (MIC), agar dilution; format: cell-based; conditions: 18 hours at 37°C
# From the text: as §1
# Staph. aureus 853E [1] = experiment: as above; format: cell-based; conditions: 18 hours at 37°C
# From the text: as §1
# S. marcescens 1324E = experiment: as above; format: cell-based; conditions: 18 hours at 37°C
# From the text: as §1
# Micrococcus SP 1810E = experiment: as above; format: cell-based; conditions: 18 hours at 37°C
# From the text: as §1
# E. cloacae 1051E = experiment: as above; format: cell-based; conditions: 18 hours at 37°C
# From the text: as §1
# E. cloacae 1321E = experiment: as above; format: cell-based; conditions: 18 hours at 37°C
# From the text: as §1
# H. influenzae 1184E = experiment: as above; format: cell-based; conditions: 18 hours at 37°C
# From the text: as §1
# K. aerogenes 1522E = experiment: as above; format: cell-based; conditions: 18 hours at 37°C
# From the text: as §1
# [2] = target: T1, partially purified β-lactamase PCI (Staphylococcus aureus, UniProt P00807); experiment: β-Lactamase inhibition (hydrolysis of ampicillin); format: biochemical; conditions: ampicillin sodium 500 µg/ml, 37°C, pH7, read-out: μg/ml of compound giving 50% inhibition of hydrolysis of ampicillin (converted)
# T1 construct: partially purified β-lactamases from Escherichia coli (either TEM or RPI), Klebsiella aerogenes (K1) and Staphylococcus aureus (PCI); endogenous in cells; host or cells: Staphylococcus aureus (PCI), enzyme partially purified from the producing bacterium
# Description: (§3) The compounds have been tested for their inhibitory activity against partially purified β-lactamases from Escherichia coli (either TEM or RPI), Klebsiella aerogenes (K1) and Staphylococcus aureus (PCI). The substrate used was ampicillin sodium.
# (§4) Ampicillin sodium at a concentration of 500 µg/ml was reacted with the enzyme at 37°C and pH7. The enzyme concentration was such as to destroy all the ampicillin within 10 minutes. The reaction was followed spectrophotometrically by observing the loss of absorption at 238 nm. Concentrations of the compound were added to inhibit the reaction, and the I5O value represents µg/ml of compound halving the initial velocity of hydrolysis of ampicillin.
# [3] = target: partially purified β-lactamase K1; experiment: β-Lactamase inhibition (hydrolysis of ampicillin); format: biochemical; conditions: β-lactamase KI; ampicillin sodium 500 µg/ml, 37°C, pH7
# Description: as §3, §4
# [4] = target: T2, partially purified β-lactamase TEM (Escherichia coli, UniProt P62593); experiment: β-Lactamase inhibition (hydrolysis of ampicillin); format: biochemical; conditions: ampicillin sodium 500 µg/ml, 37°C, pH7, read-out: μg/ml of compound giving 50% inhibition of hydrolysis of ampicillin (converted)
# T2 construct: partially purified β-lactamases from Escherichia coli (either TEM or RPI); endogenous in cells; host or cells: Escherichia coli carrying the TEM plasmid, enzyme partially purified from the bacterium
# Description: as §3, §4
# Toxicity in mice = conditions: mouse, in vivo, ip; administered intraperitoneally to mice
# Staph. aureus 853E [5] = experiment: Synergy testing with amoxycillin (MIC, agar dilution); format: cell-based
# From the text: as §1, §2
# [6] = in the presence of 1µg/ml of compound
# [7] = in the presence of 4µg/ml of compound
# T1 sequence (P00807 25-281): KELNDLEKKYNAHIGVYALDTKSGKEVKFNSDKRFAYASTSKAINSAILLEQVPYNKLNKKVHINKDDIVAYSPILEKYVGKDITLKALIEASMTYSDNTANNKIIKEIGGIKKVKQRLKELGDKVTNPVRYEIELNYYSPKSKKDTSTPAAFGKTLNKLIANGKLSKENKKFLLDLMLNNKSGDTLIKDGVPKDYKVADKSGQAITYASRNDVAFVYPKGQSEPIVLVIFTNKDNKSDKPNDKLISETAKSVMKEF
# T2 sequence (P62593 24-286 limits assumed): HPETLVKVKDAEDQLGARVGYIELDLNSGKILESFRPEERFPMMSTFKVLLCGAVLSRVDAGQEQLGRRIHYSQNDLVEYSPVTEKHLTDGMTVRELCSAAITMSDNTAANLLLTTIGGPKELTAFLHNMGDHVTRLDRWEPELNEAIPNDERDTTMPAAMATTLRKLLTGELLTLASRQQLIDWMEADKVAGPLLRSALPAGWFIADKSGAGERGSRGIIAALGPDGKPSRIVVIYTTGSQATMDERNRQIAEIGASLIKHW
SMILES,MIC of amoxycillin (E. coli (TEM^+) 1193E; [6]),MIC of amoxycillin (Pr. rettgeri 1356E; [6]),MIC of amoxycillin (Pr. rettgeri 1356E; [7]),MIC of amoxycillin (K. aerogenes 1963E; [6]),MIC (agar dilution) of compound (E. coli 851E),MIC (agar dilution) of compound (Staph. aureus 853E [1]; Staph. aureus 853E),MIC (agar dilution) of compound (S. marcescens 1324E),MIC (agar dilution) of compound (Micrococcus SP 1810E),MIC (agar dilution) of compound (E. cloacae 1051E),MIC (agar dilution) of compound (E. cloacae 1321E),MIC (agar dilution) of compound (H. influenzae 1184E),MIC (agar dilution) of compound (K. aerogenes 1522E),IC50 [2],μg/ml of compound giving 50% inhibition of hydrolysis of ampicillin [3],IC50 [4],LD50 (Toxicity in mice),MIC (agar dilution) of compound (Staph. aureus 853E [1]; Staph. aureus 835E),also measured
NC(=O)c1cn(C/C=C2\O[C@@H]3CC(=O)N3[C@H]2C(=O)O)nn1 [Example 12],62 µg/mL,8 µg/mL,1 µg/mL,1 µg/mL,4 µg/mL,0.5 µg/mL,8 µg/mL,0.2 µg/mL,4 µg/mL,4 µg/mL,31 µg/mL,8 µg/mL,1230 nM,0.34 µg/mL,426 nM,,,MIC of amoxycillin (E. coli (TEM^+) 1193E; [7]): 1 µg/mL; MIC of amoxycillin (K. aerogenes 1963E; [7]): < 0.1 µg/mL
"CC(=O)c1cnnn1C/C=C1\O[C@@H]2CC(=O)N2[C@H]1C(=O)O [Example 10, Sodium (3R,5R.Z)-2-[2-(5-acetvl-1.2,3-triazol-l-yl)-ethylidene]-clavam-3-carboxylate]",,,,,,,,,,,,,2400 nM,0.62 µg/mL,1980 nM,,,
"CC(=O)c1cn(C/C=C2\O[C@@H]3CC(=O)N3[C@H]2C(=O)O)nn1 [Example 6, Sodium (3R,5R,Z)-2-[2-(4-acetyl-1,2,3-triazol-l-yl)-ethlidene]-clavam-3-carboxylate]",,,,,4 µg/mL,,62 µg/mL,<0.1 µg/mL,8 µg/mL,8 µg/mL,62 µg/mL,8 µg/mL,616 nM,0.155 µg/mL,,> 500 mg/kg,<0.1 µg/mL,
"COC(=O)c1cn(C/C=C2\O[C@@H]3CC(=O)N3[C@H]2C(=O)O)nn1 [Example 19, Sodium (3R,5R,Z)-2-[2-(4-methoxycarbonyl-1,2,3-triazol-1-y)ethylidene]clavam-3-carboxylate]",,16 µg/mL,1 µg/mL,,4 µg/mL,0.5 µg/mL,62 µg/mL,,16 µg/mL,16 µg/mL,62 µg/mL,16 µg/mL,,,,> 500 mg/kg,,
"CC1(C)S[C@@H]2[C@H](NC(=O)[C@H](N)c3ccc(O)cc3)C(=O)N2[C@H]1C(=O)O [amoxycillin, reference compound]",,,,,,,,,,,,,,,,,,MIC of amoxycillin (Staph. aureus 853E [5]; amoxycillin alone): 2 µg/mL; MIC of amoxycillin (E. coli (TEM^+) 1193E; amoxycillin alone): > 250 µg/mL; MIC of amoxycillin (Pr. rettgeri 1356E; amoxycillin alone): > 250 µg/mL; MIC of amoxycillin (K. aerogenes 1963E; amoxycillin alone): 62 µg/mL
O=C(O)[C@H]1/C(=C/Cn2ccnn2)O[C@@H]2CC(=O)N21 [Example 22],,,,,4 µg/mL,2 µg/mL,8 µg/mL,,8 µg/mL,8 µg/mL,16 µg/mL,8 µg/mL,,,,,,
"N#Cc1cn(C/C=C2\O[C@@H]3CC(=O)N3[C@H]2C(=O)O)nn1 [Example 17, Sodium (3R,5R,Z)-2-[2-(4-cyano-1,2,3-triazol-1-yl)-ethylidene]clavam-3-carboxylate]",31 µg/mL,31 µg/mL,2 µg/mL,2 µg/mL,2 µg/mL,,31 µg/mL,,4 µg/mL,4 µg/mL,16 µg/mL,8 µg/mL,2540 nM,0.39 µg/mL,363 nM,> 500 mg/kg,<0.1 µg/mL,MIC of amoxycillin (K. aerogenes 1963E; [7]): 0.5 µg/mL
"CCOC(=O)c1nnn(C/C=C2\O[C@@H]3CC(=O)N3[C@H]2C(=O)O)c1C(=O)OCC [Example 2, Sodium (3R,5R,Z)-2-[2-(4,5-diethoxcarbonl-1,2,3-triazol-1-yl)-ethylidene]-clavam-3-carboxylate]",,,,,,,,,,,,,5330 nM,0.8 µg/mL,761 nM,,,
"CNC(=O)c1cn(C/C=C2\O[C@@H]3CC(=O)N3[C@H]2C(=O)O)nn1 [Example 14, Sodium (3R,5R.Z)-2-{2-[4-(N-methylcarbamoyl)-1.2.3-triazol-1-yl]-ethylidene}-clavam-3-carboxylate]",62 µg/mL,8 µg/mL,1 µg/mL,8 µg/mL,8 µg/mL,1 µg/mL,31 µg/mL,1 µg/mL,16 µg/mL,16 µg/mL,31 µg/mL,16 µg/mL,2180 nM,0.7 µg/mL,,> 500 mg/kg,,MIC of amoxycillin (Staph. aureus 853E [5]; [6]): < 0.1 µg/mL; MIC of amoxycillin (E. coli (TEM^+) 1193E; [7]): 4 µg/mL; MIC of amoxycillin (K. aerogenes 1963E; [7]): 0.2 µg/mL
"O=C(O)c1cn(C/C=C2\O[C@@H]3CC(=O)N3[C@H]2C(=O)O)nn1 [Example 8, Disodium (3R,5R.Z)-2-[2-(4-carboxy-1.2.3-triazol-l-yl)-ethylidene]-clavam-3-carboxylate]",,,,,8 µg/mL,,31 µg/mL,8 µg/mL,16 µg/mL,8 µg/mL,31 µg/mL,16 µg/mL,9860 nM,0.22 µg/mL,374 nM,,8 µg/mL,
CCOC(=O)c1cn(C/C=C2\O[C@@H]3CC(=O)N3[C@H]2C(=O)O)nn1 [Example 4],> 250 µg/mL,125 µg/mL,4 µg/mL,2 µg/mL,4 µg/mL,,125 µg/mL,<0.1 µg/mL,16 µg/mL,16 µg/mL,62 µg/mL,8 µg/mL,419 nM,0.35 µg/mL,,> 500 mg/kg,<0.1 µg/mL,
